In patent US4371537A, “Sulfur-substituted phenoxypyridines having antiviral activity” (The Dow Chemical Company, priority 1981, dated 1983):
In brackets after ≈: the same amount, converted by molar mass. Where two headings read alike, the source gives them in different places.

How the values were obtained:
[1] = test system: Coxsackie A21 virus (Cox A21); experiment: Tissue culture testing, Coxsackie A21 virus in HeLa cells; format: cell-based; settings: 48 and 72 hours, NA = not active at the standard test conditions, read-out: Cox A21: lowest concentration of the compound necessary to cause a 50 percent reduction in cytopathic effect
Procedure: (§1) Monolayered HeLa cells in 16 millimeter (mm) tissue culture dishes were treated with 1 ml of culture medium (Eagles medium supplemented with fetal calf serum) containing subject compound at an appropriate concentration or containing no compound at all. Culture media such as those described herein are more fully described in standard texts, as for example, Kuchler's Biochemical Methods in Cell Culture and Virology, Dowden, Hutchinson and Ross, Inc., Stroudsberg, PA (1977). Following treatment, cells were challenged with 0.05 ml of rhinovirus type 1A (RV-1A), rhinovirus type 2 (RV-2) or Coxsackie A21 virus (Cox A21) in culture medium. Some of the compounds were also tested against rhinovirus type 5 (RV-5), rhinovirus type 8 (RV-8) or rhinovirus type 64 (RV-64). Cell controls received no viruses.
(§2) ^2 Lowest concentration of the compound (μg/ml) necessary to cause

[2] = test system: rhinovirus type 1A (RV-1A); experiment: Tissue culture testing, rhinovirus type 1A in HeLa cells; format: cell-based; settings: Enterovirus, 48 and 72 hours, NA = not active at the standard test conditions, read-out: RV-1A: lowest concentration of the compound necessary to cause a 50 percent reduction in cytopathic effect
Procedure: as §1, §2

[3] = Cytotoxicity in tissue culture testing (HeLa monolayers); format: cell-based; settings: human, HeLa cells
Procedure: as §1
^1 Cytotoxicity figures represent the concentration of the compound, […]

rhinovirus type 2 (RV-2) = experiment: Tissue culture testing, rhinovirus type 2 in HeLa cells; format: cell-based; settings: Enterovirus, 48 and 72 hours, NA = not active at the standard test conditions, read-out: RV-2: lowest concentration of the compound necessary to cause a 50 percent reduction in cytopathic effect
Procedure: as §1, §2

[4] = test system: rhinovirus type 64 (RV-64); experiment: Tissue culture testing, rhinovirus type 64 in HeLa cells; format: cell-based; settings: Enterovirus, 48 and 72 hours, NA = not active at the standard test conditions, read-out: RV-64: lowest concentration of the compound necessary to cause a 50 percent reduction in cytopathic effect
Procedure: as §1, §2

Coxsackie A21 virus = experiment: Continuous Oral Feeding test in mice challenged IP with Coxsackie A21 virus; format: in vivo; settings: for Continuous Oral Feeding X^2 (chi-square, deaths vs control): 0.06 % in diet, 240 h; for Continuous Oral Feeding: toxicity of the test compound at the indicated dosage: 0.06% in diet, "toxic" = significantly toxic at the indicated dosage
Procedure: Some of the compounds were also tested in animals utilizing the following procedure, hereainafter referred to as the "Continuous Oral Feeding" test. Coxsackie A21 virus grown on HeLa cells was administered at a concentration that produces 80 to 100% deaths in mice weighing 8 to 12 grams within 10 days, when the mice are injected (IP) with 0.2 ml of virus preparation. Mice were placed on diets containing test compound dispersed in plain commercially available rodent mash chow at a concentration of 0.06% (weight percent) on day 0. On day 1 the mice were challenged with the virus preparation, 0.2 ml/mouse, (IP). Deaths in both control and experimental groups were recorded for the 10 days and the results analyzed by a chi-square (.chi.^2) test. Chi-square values greater than 3.84 indicate the compound is active (95% confidence level).

Cox A21 = experiment: Single Oral Dose test in mice challenged IP with Cox A21; format: in vivo, Swiss male mice; settings: 600 mg/kg P.O. 3 h after IP challenge; >3.84 significant (95% confidence level)
Procedure: In addition, some of the compounds were tested in animals utilizing the following procedure, hereinafter referred to as the "Single Oral Dose" test. Swiss male mice, 8-12 grams in weight were challenged intraperitoneally (IP) with 0.2 ml of a normally lethal dose, i.e., a virus dose sufficient to cause […].80-100% mortality in infected animals within 10 days of challenge of Cox A21, in phosphate buffered saline containing 1% heat inactivated fetal calf serum. Three hours later mice were treated orally (P.O.) with 0.2 ml of compound suspended in 0.5% hydroxypropyl methylcellulose (Methocel) or with 0.2 ml of 0.5% Methocel containing no compound. […] Mice were observed daily for 7-10 days post-challenge and deaths recorded. A modified Mantel-Haenzel combined chi-square procedure was used to determine significant difference between virus control and treated groups. Chi-square values greater than 3.84 are considered significant (95% confidence level) in this test.

[5] = observed at 48 and 72 hours post-treatment, read-out: Cytotoxicity: concentration of the compound found to be toxic to the cell

Row | SMILES | EC50 [1] | EC50 [2] | MCC [3, 5] | EC50 (rhinovirus type 2 (RV-2)) | EC50 [4] | Continuous Oral Feeding X^2 (chi-square, deaths vs control) (Coxsackie A21 virus) | Single Oral Dose X^2 (chi-square, deaths vs virus control) (Cox A21) | MCC ([3]; GI = growth inhibition, read-out: Cytotoxicity: concentration at which the compound inhibited the growth of the tissue culture (GI)) | Continuous Oral Feeding: toxicity of the test compound at the indicated dosage (Coxsackie A21 virus)
1 | CC[S+]([O-])c1ccc(Oc2ccc(Cl)c(Cl)c2)nc1 (stereo not drawn) [Example 46, 2-(3,4-dichlorophenoxy)-5-(ethylsulfinyl)pyridine] | 12.5 µg/mL (≈ 39.5 µM) | < 3.12 µg/mL | 12.5 µg/mL | < 3.12 µg/mL | 5 µg/mL (≈ 15.8 µM) |  |  |  | 
2 | CC(=O)c1ccc(Oc2ccc(S(C)(=O)=O)cn2)cc1 [Example 34, 1-(4-((5-(methylsulfonyl)-2-pyridinyl)oxy)phenyl)ethanone] |  | 25 µg/mL (≈ 85.8 µM) | > 50 µg/mL | 12.5 µg/mL (≈ 42.9 µM) |  | 1.727 |  |  | 
3 | O=S(=O)(c1ccccc1)c1ccc(Oc2ccc(Cl)c(Cl)c2)nc1 [Example 60, 2-(3,4-dichlorophenoxy)-5-(phenylsulfonyl)pyridine] | 10 µg/mL (≈ 26.3 µM) | 5 µg/mL (≈ 13.1 µM) | ≥ 100 µg/mL | 10 µg/mL (≈ 26.3 µM) |  | 0.970 | 0.839 |  | 
4 | C[S+]([O-])c1ccc(Oc2ccc(Cl)c(Cl)c2)nc1 (stereo not drawn) [Example 39, 2-(3,4-dichlorophenoxy)-5-(methylsulfinyl)pyridine] | 25 µg/mL (≈ 82.7 µM) | 0.625 µg/mL (≈ 2.07 µM) | 25 µg/mL | 1.25 µg/mL (≈ 4.14 µM) | 1.25 µg/mL (≈ 4.14 µM) |  |  |  | 
5 | CS(=O)(=O)c1cccc(Oc2ccc(Cc3ccccc3)cc2)n1 [Example 69, 2-(methylsulfonyl)-6-(4-(phenylmethyl)phenoxy)pyridine] |  | 0.625 µg/mL (≈ 1.84 µM) | 5 µg/mL | 2.5 µg/mL (≈ 7.37 µM) |  | 0.776 | 3.510 |  | 
6 | CC(C)(C)c1ccc(Oc2ccc(S(C)(=O)=O)cn2)cc1 [Example 33, 2-(4-(1,1-dimethylethyl)phenoxy)-5-(methylsulfonyl)pyridine] |  |  | > 100 µg/mL | 12.5 µg/mL (≈ 40.9 µM) |  | 4.042 |  |  | 
7 | CS(=O)(=O)c1ccc(Oc2cccc(C#N)c2)nc1 [Example 36, 3-((5-(methylsulfonyl)-2-pyridinyl)oxy)benzonitrile] | 50 µg/mL (≈ 182 µM) | 12.5 µg/mL (≈ 45.6 µM) | > 100 µg/mL | 50 µg/mL (≈ 182 µM) | 50 µg/mL (≈ 182 µM) | 3.447 | 2.20 |  | 
8 | CCCCCCS(=O)(=O)c1ccc(Oc2ccc(C(=O)c3ccccc3)cc2)nc1 [Example 55, (4-((5-(n-hexylsulfonyl)-2-pyridinyl)oxy)phenyl)phenylmethanone] | 3.12 µg/mL (≈ 7.38 µM) | 3.12 µg/mL (≈ 7.38 µM) | 12.5 µg/mL | 12.5 µg/mL (≈ 29.5 µM) |  |  | 0.190 |  | 
9 | O=S(=O)(c1ccccc1)c1ccc(Oc2ccc(Br)cc2)nc1 [Example 61, 2-(4-bromophenoxy)-5-(phenylsulfonyl)pyridine] | 5 µg/mL (≈ 12.8 µM) | 10 µg/mL (≈ 25.6 µM) | 20 µg/mL | 10 µg/mL (≈ 25.6 µM) |  | 3.328 | 4.401 |  | 
10 | O=C(c1ccccc1)c1ccc(Oc2ccc(S(=O)(=O)Cc3ccccc3)cn2)cc1 [Example 62, phenyl(4-((5-((phenylmethyl)sulfonyl)-2-pyridinyl)oxy)phenyl)methanone] | < 3.12 µg/mL | 25 µg/mL (≈ 58.2 µM) |  |  |  | 0.066 |  | 50 µg/mL | 
11 | CCSc1ccc(Oc2ccc(Cl)c(Cl)c2)nc1 [Example 45, 2-(3,4-dichlorophenoxy)-5-(ethylthio)pyridine] | 3.12 µg/mL (≈ 10.4 µM) | 2.5 µg/mL (≈ 8.33 µM) | 12.5 µg/mL | 2.5 µg/mL (≈ 8.33 µM) | 5 µg/mL (≈ 16.7 µM) |  |  |  | 
12 | O=S(=O)(Cc1ccccc1)c1ccc(Oc2ccc(Br)cc2)nc1 [Example 64, 2-(4-bromophenoxy)-5-((phenylmethyl)sulfonyl)pyridine] |  |  | ≥ 100 µg/mL | 50 µg/mL (≈ 124 µM) |  | 2.985 | 0.483 |  | 
13 | O=S(=O)(Cc1ccccc1)c1ccc(Oc2ccc(Cl)c(Cl)c2)nc1 [Example 63, 2-(3,4-dichlorophenoxy)-5-((phenylmethyl)sulfonyl)pyridine] | 10 µg/mL (≈ 25.4 µM) | 5 µg/mL (≈ 12.7 µM) | 25 µg/mL | 10 µg/mL (≈ 25.4 µM) |  | 4.106 | 0.733 |  | 
14 | CS(=O)(=O)c1ccc(Oc2cccc(Br)c2)nc1 [Example 35, 2-(3-bromophenoxy)-5-(methylsulfonyl)pyridine] | 50 µg/mL (≈ 152 µM) | < 6.25 µg/mL | > 100 µg/mL | 12.5 µg/mL (≈ 38.1 µM) | 6.25 µg/mL (≈ 19 µM) | 0.197 | 1.604 |  | 
15 | CSc1ccc(Oc2ccc(Cl)c(Cl)c2)nc1 [Example 38, 2-(3,4-dichlorophenoxy)-5-(methylthio)pyridine] | 2.5 µg/mL (≈ 8.74 µM) | 1.25 µg/mL (≈ 4.37 µM) | 25 µg/mL | 2.5 µg/mL (≈ 8.74 µM) |  |  | 25.233 |  | 
16 | CS(=O)(=O)c1cccc(Oc2ccc(Br)cc2)n1 [Example 70, 2-(4-bromophenoxy)-6-(methylsulfonyl)pyridine] |  | 25 µg/mL (≈ 76.2 µM) | 25 µg/mL | 25 µg/mL (≈ 76.2 µM) |  | 0.035 |  |  | 
17 | CCCCCCS(=O)(=O)c1ccc(Oc2ccc(Cl)c(Cl)c2)nc1 [Example 54, 2-(3,4-dichlorophenoxy)-5-(n-hexylsulfonyl)pyridine] |  | 12.5 µg/mL (≈ 32.2 µM) | > 50 µg/mL | 12.5 µg/mL (≈ 32.2 µM) |  | 0.162 |  |  | 
18 | CCCCCCS(=O)(=O)c1ccc(Oc2ccc(Br)cc2)nc1 [Example 53, 2-(4-bromophenoxy)-5-(n-hexylsulfonyl)pyridine] | 12.5 µg/mL (≈ 31.4 µM) | 25 µg/mL (≈ 62.8 µM) | > 50 µg/mL | 25 µg/mL (≈ 62.8 µM) |  | 2.925 |  |  | 
19 | CC(=O)c1ccc(Oc2ccc(S(=O)(=O)C3CCCCC3)cn2)cc1 [Example 56, 1-(4-((5-(cyclohexylsulfonyl)-2-pyridinyl)oxy)phenyl)ethanone] | 3.12 µg/mL (≈ 8.69 µM) | ~12.5 µg/mL (≈ 34.8 µM) | 12.5 µg/mL | ~12.5 µg/mL (≈ 34.8 µM) |  | 0.019 |  |  | 
20 | CS(=O)(=O)c1cccc(Oc2ccc(C(=O)c3ccccc3)cc2)n1 [Example 68] | 6.25 µg/mL (≈ 17.7 µM) | 6.25 µg/mL (≈ 17.7 µM) | 12.5 µg/mL | 6.25 µg/mL (≈ 17.7 µM) |  | 0.680 | 0.362 |  | 
21 | CS(=O)(=O)c1ccc(Oc2ccc(Oc3ccccc3)cc2)nc1 [Example 28, 5-(methylsulfonyl)-2-(4-phenoxyphenoxy)pyridine] | 50 µg/mL (≈ 146 µM) |  | > 100 µg/mL | 25 µg/mL (≈ 73.2 µM) |  | 6.249 |  |  | toxic
22 | CC(=O)c1ccc(Oc2ccc(S(=O)(=O)C(C)C)cn2)cc1 [Example 52, 1-(4-((5-((1-methylethyl)sulfonyl)-2-pyridinyl)oxy)phenyl)ethanone] | 25 µg/mL (≈ 78.3 µM) | 50 µg/mL (≈ 157 µM) | ≥ 50 µg/mL | 50 µg/mL (≈ 157 µM) |  | 1.140 |  |  | 
23 | CS(=O)(=O)c1cccc(Oc2ccc(Cl)c(Cl)c2)n1 [Example 67, 2-(3,4-dichlorophenoxy)-6-(methylsulfonyl)pyridine] | ~50 µg/mL (≈ 157 µM) | 3.12 µg/mL (≈ 9.82 µM) | 50 µg/mL | 12.5 µg/mL (≈ 39.3 µM) |  | 7.39 |  |  | toxic
